Values joined by “and” are separate entries in the source; they are usually repeats but may differ in a detail not shown here. Equal values may be shown once. Read-outs that look alike come from different tables or passages of the source.
What was measured:
[1] = tested on: A. castellanii cysts; assay: Cytotoxicity assay on cysts (trypan blue); assay type: cell-based, Acanthamoeba castellanii ATCC 50370; details: Acanthamoeba castellanii
Protocol: Acanthamoeba castellanii ATCC 50370 trophozoites and cysts were cultured in Peptone Glucose (PG) medium and encystment medium (Chagla A H, Griffiths A J (1974) Microbiology: 85(1): 139-145) respectively at 25° C. Cysts were prepared by incubating trophozoites for 8 days in encystment medium and integrity validated with calcofluor (0.25 μg/ml) assay (Gatti S et al (2010) J. Med. Microbiol.; 59: 1324-1330) or sodium dodecyl sulfate (SDS, 0.5% w/v) disintegration assay (Dudley R et al (2005) Acta Trop.; 9: 100-8) and microscopic observation.
The compounds used in this study all contained alkyl-carbon chains: three APCs [dodecyl-PC (APC12), tetradecyl-PC. (APC14) and hexadecyl-PC (APC16)] (Anatrace) and four QACs [docdecyl-TMAB (QAC12), tetradecyl-TMAB (QAC14), hexadecyl-TMAB (QAC16) and octadecyl-TMAB (QAC18)](Sigma). All were prepared to a stock concentration of 1 mg/ml and diluted as required by the experimental protocol in the cytotoxicity assays. A. castellanii trophozoites and cysts (at 10^5 cells/ml) with or without APCs or QACs (concentrations ranging from […] doubly diluted to 0.04 μg/ml to a final volume of 100 μl) in a 96-well plate were incubated at 25° C. for a duration determined by the experimental protocol.
(§1) For the combined assay, similar concentrations of QAC18 and APC16 were prepared and 18.75 μg/ml and 37.5 μg/ml of QAC12 added (to a final volume of 100 μl) were added to 10^5 cells/mi in a 96-well plate and later incubated at 25° C. for a duration determined by the experimental protocol. Resazurin (7-Hydroxy-31-phenoxazin-3-one 10-oxide; 5 mg/ml; McBride J et al (2005) J. Clin. Microbiol.; 43: 629-634) and trypan blue (0.4 μg/ml; Mafra C S P et al (2013) Investig. Ophthalmol. Vis. Si.; 54: 6363-6372) were then added to trophozoites and cysts respectively after being exposed to the compounds and the cell viability estimated microscopically and from changes in absorbance (at 595 nm and 570 nm) respectively.
Efficacy was expressed as a percentage of untreated controls for each drug concentration used and the data used to calculate the IC50. Cell density was estimated using the modified Neubaur hemocytometer and expressed as cells/ml.

[2] = tested on: A. castellanii trophozoites; assay: DNA-agarose gel electrophoresis of gDNA of treated trophozoites; assay type: cell-based, Acanthamoeba castellanii; details: 18.75 μg/ml after 96 h
Protocol: Genomic deoxynucleic acids (gDNA) from 10^8 A. castellanii trophozoites (treated with and without QAC) were extracted from cells harvested by centrifugation (850×g, 10 min), lysed with UNSET buffer (8M urea, 150 μM NaCl, 2% SDS, […] ethylenediaminetetraacetic acid (EDTA), […] Tris-HCl, pH 7.5) and the DNA extracted with phenol-chloroform (1:1 v/v). The biphasic suspension with DNA enriched on the […] was centrifuged (12,000×g for 15 min, 4° C.) for clear separation and transferred to a new microcentrifuge tube. The DNA was precipitated with cold ethanol (100%, v/v) and 0.3M sodium acetate, washed twice with 70% (v/v) ethanol (12,000×g for 10 min, 4° C.), air dried and resuspended in distilled water.

[3] = tested on: A. castellanii cysts; assay: Extrusion of cytoplasmic constituents (DNA, protein) from cysts; assay type: cell-based, Acanthamoeba castellanii ATCC 50370
Source text: FIGS. 9A-9B show the extrusion of cytoplasmic constituents of A. castellani cysts to the external milieu after QAC treatment. DNA (FIG. 9A) and Protein (FIG. […] 9A) and at 280 nm (FIG. 9B) respectively. Data is mean absorbance at 260 nm (FIG. 9A) and 280 nm (FIG. 9B)±SD respectively: n=4 independent experiments performed in triplicates.
Protein concentration in cell extract and media of QAC-treated and untreated A. castellanii trophozoites was estimated at 280 nm using the Nanodrop® ND-1000 and expressed as ng/μl protein. DNA concentrations were estimated similarly at 260 nm and expressed as ng/μl.

[4] = tested on: A. castellanii trophozoites; assay: Combined assay with fixed QAC12 (alamarBlue); assay type: cell-based, Acanthamoeba castellanii ATCC 50370; details: Acanthamoeba castellanii, 96 h, 96 h at 25° C.
Protocol: Acanthamoeba trophozoites (10^5 cells/ml. n=5/treatment) treated with 100 μg/ml doubly diluted to 0.06 μg/ml of QAC18 (a,b) or APC16 (c,d) for 96 h at 25° C. […] Similarly. APC16 alone at the same concentration (closed circle, FIG. 6C, FIG. 6D) in combination with QAC12 at 18.75 μg/ml (open squares, d) QAC12 at […] (open squares, FIG. 6C). Data are mean absorbance at 595 nm t SD; n=4 independent experiments performed in triplicates. IC50s were not statistically significant between QAC12 at both concentrations and QAC16 (p>0.05, FIG. 6A, FIG. 6B) but significant with APC16 (p<0.05, FIG. 6C, FIG. 6D).
as §1

[5] = tested on: A. castellanii trophozoites; assay: Morphometric analysis of trophozoites; assay type: cell-based, Acanthamoeba castellanii ATCC 50370
Protocol: Acanthamoeba trophozoites ([…]) incubated without (FIG. 2A), with QAC18 at 37.5 μg/ml for 1 h at 25° C. (FIG. 2B), and 0.5% SDS for 30 min (FIG. 2C). QAC18 reduced trophozoites sizes from 29.02±0.23 (FIG. 2A) to 7.87 f 0.93 (FIG. 2B) which disintegrated after 30 min treatment with SDS (FIG. 2C).
A. castellanii trophozoites incubated with and without QAC for a duration determined by experimental protocol were examined microscopically and their sizes measured using the Open Laboratory (Improvision) calibration graticule. The mean body sizes were determined.

## CCCCCCCCCCCCCCCCCC[N+](C)(C)C.[Br-] [QAC18, octadecyltrimethyl ammonium bromide]
[1]; Table 2, read-out: IC50 A. castellanii cysts
  IC50: 15 µg/mL and 38 µM
[1]; after 96 h, trypan blue viability assay, read-out: Estimated IC50 against matured cysts
  IC50: 22 ± 0.04 µg/mL
[2]
  Fragmented DNA profile that depicts death via apoptosis: not observed
[3]; after 1 h (FIG. 9A)
  Increase in DNA in the external milieu of cysts: 40%
[3]; after 1 h (FIG. 9B)
  Increase in proteins in the external milieu of cysts: 50%
[4]; QAC12 fixed at 18.75 μg/ml, read-out: Estimated IC50 of QAC18 in combination with QAC12
  IC50: 6.7 µg/mL
[4]; QAC12 fixed at 37.5 μg/ml, read-out: Estimated IC50 of QAC18 in combination with QAC12
  IC50: 6.9 µg/mL
[4]; without QAC12, read-out: Estimated IC50 of QAC18 alone
  IC50: 6.1 µg/mL
[5]
  Reduction in trophozoite size relative to untreated: 4 fold
[5]; 37.5 μg/ml for 1 h at 25° C. (FIG. 2B)
  Trophozoite size after treatment: 7.87
[5]; QAC18-treated trophozoites (FIG. 2B)
  Trophozoite size after treatment: 7.87±0.93 μm
